ChEMBL document CHEMBL1201862, “PubChem BioAssay data set” (2004)
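Test compounds were applied to cells in 96-well plates for 48 hours at 5 doses. GI50 is the concentration that inhibits growth by half.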 The source made the active and inactive calls. No stated cut-off is given here; in the data, active = GI50 up to about 1.1 µM and inactive = higher.

Legend:
Experiment in all cases: inhibition of tumour cell growth, NCI panel, 48 h
PC-3 = tested on: PC-3
DU-145 = tested on: DU-145
A549 = tested on: A549
HCT-116 = tested on: HCT-116
M14 = tested on: M14
UO-31 = tested on: UO-31
SF-295 = tested on: SF-295
HCC 2998 = tested on: HCC 2998
EKVX = tested on: EKVX
RPMI-8226 = tested on: RPMI-8226
CAKI-1 = tested on: CAKI-1
HL-60 = tested on: HL-60
786-0 = tested on: 786-0
MOLT-4 = tested on: MOLT-4
NCI-H460 = tested on: NCI-H460
OVCAR-3 = tested on: OVCAR-3
HOP-92 = tested on: HOP-92
SK-OV-3 = tested on: SK-OV-3

Structure (SMILES)	GI50 (PC-3)	GI50 (DU-145)	GI50 (A549)	GI50 (HCT-116)	GI50 (M14)	GI50 (UO-31)	GI50 (SF-295)	GI50 (HCC 2998)	GI50 (EKVX)	GI50 (RPMI-8226)	GI50 (CAKI-1)	GI50 (HL-60)	GI50 (786-0)	GI50 (MOLT-4)	GI50 (NCI-H460)	GI50 (OVCAR-3)	GI50 (HOP-92)	GI50 (SK-OV-3)
O=c1[nH]c(=O)n(CCOc2ccc(Cl)cc2)cc1Nc1ccccc1	> 100 µM (inactive)	> 100 µM (inactive)	> 100 µM (inactive)	> 100 µM (inactive)	> 100 µM (inactive)	58.5 µM (inactive)	12.4 µM (inactive)	> 100 µM (inactive)	71 µM (inactive)	> 100 µM (inactive)	> 100 µM (inactive)	> 100 µM (inactive)	44.3 µM (inactive)	> 100 µM (inactive)	> 100 µM (inactive)	85.3 µM (inactive)	> 100 µM (inactive)	
CCC(CCN)(CCN)[N+](=O)[O-]	> 100 µM (inactive)	> 100 µM (inactive)	> 100 µM (inactive)	> 100 µM (inactive)	> 100 µM (inactive)		> 100 µM (inactive)		> 100 µM (inactive)	> 100 µM (inactive)	> 100 µM (inactive)	> 100 µM (inactive)	> 100 µM (inactive)	> 100 µM (inactive)	> 100 µM (inactive)		> 100 µM (inactive)	> 100 µM (inactive)
COc1cccc(/C=C2\N=C(c3ccccc3)OC2=O)c1	> 100 µM (inactive)	91.2 µM (inactive)	> 100 µM (inactive)	> 100 µM (inactive)	81.3 µM (inactive)	> 100 µM (inactive)	> 100 µM (inactive)	49.7 µM (inactive)	> 100 µM (inactive)	35.1 µM (inactive)	> 100 µM (inactive)	10.7 µM (inactive)	74.5 µM (inactive)		50.7 µM (inactive)	63.1 µM (inactive)	> 100 µM (inactive)	> 100 µM (inactive)
COc1ccc(C)cc1NC(=S)N/N=C/c1ccc(SC)cc1	75 µM (inactive)	66.8 µM (inactive)	> 100 µM (inactive)	69.3 µM (inactive)	25.5 µM (inactive)	84.3 µM (inactive)	69.5 µM (inactive)			27.9 µM (inactive)	47.6 µM (inactive)	31.8 µM (inactive)	83.6 µM (inactive)	45.4 µM (inactive)		38.9 µM (inactive)	93.5 µM (inactive)	19.5 µM (inactive)
CC(=O)c1ccc(N2CCN(C3=C(Cl)C(=O)c4c(O)ccc(O)c4C3=O)CC2)cc1	5.64 µM (inactive)	17.1 µM (inactive)	17.5 µM (inactive)	3.5 µM (inactive)	2.21 µM (inactive)	10.9 µM (inactive)	18.8 µM (inactive)	15.6 µM (inactive)	18.7 µM (inactive)	2.86 µM (inactive)	4.89 µM (inactive)	0.271 µM (active)	14.2 µM (inactive)	1.68 µM (inactive)	16.8 µM (inactive)	5.19 µM (inactive)	2.11 µM (inactive)	
O=C1C[C@@H](c2ccccc2)O[C@@H](c2ccccc2)C1	> 100 µM (inactive)	> 100 µM (inactive)	> 100 µM (inactive)	> 100 µM (inactive)	> 100 µM (inactive)	> 100 µM (inactive)	> 100 µM (inactive)	> 100 µM (inactive)	> 100 µM (inactive)	> 100 µM (inactive)	> 100 µM (inactive)		> 100 µM (inactive)	> 100 µM (inactive)	> 100 µM (inactive)	> 100 µM (inactive)	> 100 µM (inactive)	> 100 µM (inactive)
C=CCN(c1cc(OCc2ccccc2)c2c(c(C)cn2S(=O)(=O)c2ccc([N+](=O)[O-])cc2)c1[N+](=O)[O-])S(C)(=O)=O	> 100 µM (inactive)	> 100 µM (inactive)	> 84.5 µM (inactive)	> 100 µM (inactive)	29.1 µM (inactive)	> 100 µM (inactive)	> 78.5 µM (inactive)	> 100 µM (inactive)	> 100 µM (inactive)	> 100 µM (inactive)	> 100 µM (inactive)		> 100 µM (inactive)	> 100 µM (inactive)	> 100 µM (inactive)	> 100 µM (inactive)	> 100 µM (inactive)	> 100 µM (inactive)
COC(OC)C1OCC(n2cc(F)c(=O)[nH]c2=O)C1O (stereo not drawn)	> 100 µM (inactive)	> 100 µM (inactive)	> 100 µM (inactive)	> 100 µM (inactive)	> 100 µM (inactive)	> 100 µM (inactive)	> 100 µM (inactive)	> 100 µM (inactive)	> 100 µM (inactive)	> 100 µM (inactive)	> 100 µM (inactive)		> 100 µM (inactive)	> 100 µM (inactive)	> 100 µM (inactive)	> 100 µM (inactive)	> 100 µM (inactive)	> 100 µM (inactive)
CN/C(N)=N/N=C1/C(=O)Nc2ccccc21	> 100 µM (inactive)	> 100 µM (inactive)	> 100 µM (inactive)	> 100 µM (inactive)	> 100 µM (inactive)	> 100 µM (inactive)	> 100 µM (inactive)	> 100 µM (inactive)	> 100 µM (inactive)	> 100 µM (inactive)	> 100 µM (inactive)	> 100 µM (inactive)	> 100 µM (inactive)	> 100 µM (inactive)	> 100 µM (inactive)		> 100 µM (inactive)	> 100 µM (inactive)
C=CC(c1ccccc1)C1(O)c2cccc(O)c2C(=O)c2c(O)cccc21 (stereo not drawn)	13.9 µM (inactive)	14.5 µM (inactive)	14.7 µM (inactive)	11.5 µM (inactive)	18.4 µM (inactive)	19.8 µM (inactive)	14.9 µM (inactive)	10.8 µM (inactive)	16.3 µM (inactive)	18.5 µM (inactive)	16.7 µM (inactive)		17.4 µM (inactive)	11.9 µM (inactive)	17.3 µM (inactive)	18 µM (inactive)	15.9 µM (inactive)	
CSCCC(NC(c1ccccc1)c1ccccc1)[PH](=O)O (stereo not drawn)	> 100 µM (inactive)	> 100 µM (inactive)	> 100 µM (inactive)	> 100 µM (inactive)	> 100 µM (inactive)	> 100 µM (inactive)	> 100 µM (inactive)		> 100 µM (inactive)	> 100 µM (inactive)	> 100 µM (inactive)	> 100 µM (inactive)	> 100 µM (inactive)	> 100 µM (inactive)	> 100 µM (inactive)	> 100 µM (inactive)	> 100 µM (inactive)	> 100 µM (inactive)
COc1ccc(N2C(=O)CS(=O)(=O)C2c2cccc(Oc3ccccc3)c2)cc1 (stereo not drawn)	3.65 µM (inactive)	6.65 µM (inactive)	6.58 µM (inactive)	2.17 µM (inactive)	3.7 µM (inactive)	7.18 µM (inactive)	3.94 µM (inactive)		9.91 µM (inactive)		2.72 µM (inactive)	3.32 µM (inactive)	4.7 µM (inactive)	3.5 µM (inactive)	2.61 µM (inactive)	4.03 µM (inactive)	7.52 µM (inactive)	4.38 µM (inactive)
CCOC(=O)[C@@]12C3C=CC(CC3)[C@]1(C(=O)c1ccccc1)C(=O)C(=O)N2c1ccccc1 (stereo partly drawn)	> 100 µM (inactive)	> 100 µM (inactive)	> 100 µM (inactive)	> 100 µM (inactive)	> 100 µM (inactive)	> 100 µM (inactive)	> 100 µM (inactive)	> 100 µM (inactive)		> 100 µM (inactive)	> 100 µM (inactive)		> 100 µM (inactive)	> 100 µM (inactive)	> 100 µM (inactive)	> 100 µM (inactive)	> 100 µM (inactive)	> 100 µM (inactive)
O=C1CCSSCCC(=O)Nc2ccccc2N1	> 100 µM (inactive)	> 100 µM (inactive)	> 100 µM (inactive)	> 100 µM (inactive)	> 100 µM (inactive)	> 100 µM (inactive)	> 100 µM (inactive)		> 100 µM (inactive)	> 100 µM (inactive)	> 100 µM (inactive)	> 100 µM (inactive)	> 100 µM (inactive)	34 µM (inactive)	> 100 µM (inactive)	> 100 µM (inactive)	> 100 µM (inactive)	> 100 µM (inactive)
CCCCCCCCCCCCCCCC(=O)OC(COC(C)=O)CO[PH](=O)O (stereo not drawn)	30.5 µM (inactive)	71.4 µM (inactive)	19.5 µM (inactive)		14.7 µM (inactive)	26.3 µM (inactive)	17.6 µM (inactive)	21.4 µM (inactive)	49.3 µM (inactive)	78.2 µM (inactive)	41.9 µM (inactive)	31.9 µM (inactive)	20.3 µM (inactive)	31.3 µM (inactive)	31.6 µM (inactive)	> 100 µM (inactive)	12 µM (inactive)	
CCCc1c(OC)c(=O)c2c(O)cc(OC)c3c4c(OC)cc(O)c5c(=O)c(OC)c(CCC)c(c1c23)c54	2.44 µM (inactive)	3.76 µM (inactive)	1.32 µM (inactive)	2.63 µM (inactive)	2.05 µM (inactive)	2.62 µM (inactive)	9.62 µM (inactive)	14.7 µM (inactive)	2.58 µM (inactive)	2.5 µM (inactive)	4.17 µM (inactive)		2.84 µM (inactive)	1.6 µM (inactive)	3.16 µM (inactive)	3.47 µM (inactive)	5.69 µM (inactive)	9.77 µM (inactive)
O=c1c(C(c2ccc(-c3ccccc3)cc2)c2c(O)oc3ccccc3c2=O)c(O)oc2ccccc12	24.2 µM (inactive)	59.8 µM (inactive)		23.2 µM (inactive)		17.7 µM (inactive)		15.6 µM (inactive)	46.6 µM (inactive)	25.9 µM (inactive)	19.9 µM (inactive)	23.2 µM (inactive)	26.9 µM (inactive)	33.5 µM (inactive)	18.9 µM (inactive)	24.3 µM (inactive)	19.1 µM (inactive)	
